In US20250179103A1, “6-OXODECAHYDROPYRROLO[1,2-A][1,5]DIAZOCINE AND 6-OXODECAHYDRO-4H-PYRROLO[2,1-D][1,5]THIAZOCINE DERIVATIVES AS STAT3 AND STAT6 MODULATORS FOR THE TREATMENT OF CANCER AND INFLAMMATORY CONDITIONS” (Recludix Pharma, Inc., priority 2022, published 2025):

What was measured:
[1] = target: T1, Recombinant STAT6 protein (STAT6(W123-T658)) (Homo sapiens, UniProt P42226); test: STAT6 Fluorescence Polarization (FP) Assay; format: binding; details: STAT6(W123-T658) 250 nM, probe 5-FAM-ApYKPFQDLI-NH2 2 nM, 45-minute incubation
T1 construct: Recombinant STAT6 protein (STAT6(W123-T658))
T1 sequence (P42226 123-658): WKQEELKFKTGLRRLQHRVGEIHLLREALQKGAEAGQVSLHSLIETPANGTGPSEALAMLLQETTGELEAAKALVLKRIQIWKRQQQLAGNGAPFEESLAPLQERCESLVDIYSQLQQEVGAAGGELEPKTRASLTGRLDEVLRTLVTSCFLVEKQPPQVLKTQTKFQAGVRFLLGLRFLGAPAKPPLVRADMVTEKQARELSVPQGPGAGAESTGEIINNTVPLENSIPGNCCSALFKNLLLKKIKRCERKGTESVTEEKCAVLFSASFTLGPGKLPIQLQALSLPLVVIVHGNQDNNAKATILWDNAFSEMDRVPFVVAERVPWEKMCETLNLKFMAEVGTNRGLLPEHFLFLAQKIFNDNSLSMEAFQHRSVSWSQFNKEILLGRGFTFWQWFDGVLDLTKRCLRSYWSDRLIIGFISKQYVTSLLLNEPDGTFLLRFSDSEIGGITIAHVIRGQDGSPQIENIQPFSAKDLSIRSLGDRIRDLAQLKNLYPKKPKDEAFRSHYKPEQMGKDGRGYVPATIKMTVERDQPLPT
Outline: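 Displacement of a fluorescent phosphotyrosine peptide (5-FAM-ApYKPFQDLI-NH2, 2 nM) from STAT6(W123-T658) (250 nM), 1% DMSO, pH 7.4 HEPES buffer. After 45 min at room temperature, polarization (mP) was plotted versus log compound concentration and fitted by nonlinear regression to give IC50.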

[2] = target: T2, Recombinant STAT3 protein (STAT3(G127-I722)) (Homo sapiens, UniProt P40763); test: STAT3 Fluorescence Polarization (FP) Assay; format: binding; details: STAT3(G127-I722) 25 nM, probe 5-FAM-GpYLPQTV-NH2 2 nM, 45-minute incubation
T2 construct: Recombinant STAT3 protein (STAT3(G127-I722))
Outline: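 Fluorescence polarization after a 45-min room-temperature incubation measured compound displacement of a 2 nM fluorescein-labelled phosphotyrosine peptide (5-FAM-GpYLPQTV-NH2) from 25 nM recombinant STAT3(G127-I722). Buffer was 10 mM HEPES pH 7.4 with 1% DMSO final. IC50s were fitted by nonlinear regression of mP against log concentration.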

T2 sequence (P40763 127-722): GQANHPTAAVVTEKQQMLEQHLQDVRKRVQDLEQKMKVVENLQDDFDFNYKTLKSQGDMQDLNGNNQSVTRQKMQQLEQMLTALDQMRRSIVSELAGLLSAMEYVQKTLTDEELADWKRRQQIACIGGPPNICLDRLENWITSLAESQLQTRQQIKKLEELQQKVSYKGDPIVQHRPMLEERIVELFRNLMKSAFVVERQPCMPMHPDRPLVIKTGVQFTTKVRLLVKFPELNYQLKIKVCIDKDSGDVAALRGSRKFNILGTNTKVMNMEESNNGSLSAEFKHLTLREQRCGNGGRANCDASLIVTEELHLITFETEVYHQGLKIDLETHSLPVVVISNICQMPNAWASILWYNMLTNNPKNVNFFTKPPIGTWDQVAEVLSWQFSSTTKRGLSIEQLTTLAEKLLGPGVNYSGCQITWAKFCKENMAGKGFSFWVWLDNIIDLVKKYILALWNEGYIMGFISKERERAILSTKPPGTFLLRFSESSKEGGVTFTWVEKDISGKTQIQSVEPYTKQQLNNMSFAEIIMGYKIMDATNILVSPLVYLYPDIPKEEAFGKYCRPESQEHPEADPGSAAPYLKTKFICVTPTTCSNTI

## CC(=O)N1CC[C@H]2CC[C@@H](C(=O)N3CCC[C@H]3Cc3cccnc3)N2C(=O)[C@@H](NC(=O)c2cc3cc(C(F)(F)P(=O)(O)O)ccc3s2)C1 [Compound 126, ((2-(((5S,8S,10aR)-3-acetyl-6-oxo-8-((S)-2-(pyridin-3-ylmethyl)pyrrolidine-1-carbonyl)decahydropyrrolo[1,2-a][1,5]diazocin-5-yl)carbamoyl)benzo[b]thiophen-5-yl)difluoromethyl)phosphonic acid]
[1]
  IC50: 300 to 3000 nM
[2]
  IC50: 1000 to 10000 nM

## CC(=O)N1CC[C@H]2CC[C@@H](C(=O)NC3COc4ccc(Cl)cc4C3)N2C(=O)[C@@H](NC(=O)c2cc3cc(C(F)(F)P(=O)(O)O)ccc3s2)C1 (stereo partly drawn) [Compound 127, ((2-(((5S,8S,10aR)-3-acetyl-8-((6-chlorochroman-3-yl)carbamoyl)-6-oxodecahydropyrrolo[1,2-a][1,5]diazocin-5-yl)carbamoyl)benzo[b]thiophen-5-yl)difluoromethyl)phosphonic acid]
[1]
  IC50: 300 to 3000 nM
[2]
  IC50: 100 to 1000 nM

## CC(=O)N1CC[C@H]2CC[C@@H](C(=O)N3CC(C(=O)N4CCCCC4)C3)N2C(=O)[C@@H](NC(=O)c2cc3cc(C(F)(F)P(=O)(O)O)ccc3[nH]2)C1 [Compound 128, ((2-(((5S,8S,10aR)-3-acetyl-6-oxo-8-(3-(piperidine-1-carbonyl)azetidine-1-carbonyl)decahydropyrrolo[1,2-a][1,5]diazocin-5-yl)carbamoyl)-1H-indol-5-yl)difluoromethyl)phosphonic acid]
[1]
  IC50: 300 to 3000 nM
[2]
  IC50: 100 to 1000 nM

## CC(=O)N1CC[C@H]2CC[C@@H](C(=O)N3CCC[C@@H]3Cc3ccccc3)N2C(=O)[C@@H](NC(=O)c2cc3cc(C(F)(F)P(=O)(O)O)ccc3[nH]2)C1 [Compound 129, ((2-(((5S,8S,10aR)-3-acetyl-8-((R)-2-benzylpyrrolidine-1-carbonyl)-6-oxodecahydropyrrolo[1,2-a][1,5]diazocin-5-yl)carbamoyl)-1H-indol-5-yl)difluoromethyl)phosphonic acid]
[1]
  IC50: 300 to 3000 nM
[2]
  IC50: 1000 to 10000 nM

## CC(=O)N1CC[C@H]2CC[C@@H](C(=O)N3CCCC3Cc3ccc(F)cc3)N2C(=O)[C@@H](NC(=O)c2cc3cc(C(F)(F)P(=O)(O)O)ccc3[nH]2)C1 (stereo partly drawn) [Compound 130, ((2-(((5S,8S,10aR)-3-acetyl-8-(2-(4-fluorobenzyl)pyrrolidine-1-carbonyl)-6-oxodecahydropyrrolo[1,2-a][1,5]diazocin-5-yl)carbamoyl)-1H-indol-5-yl)difluoromethyl)phosphonic acid]
[1]
  IC50: 300 to 3000 nM
[2]
  IC50: 1000 to 10000 nM

## COc1ccc(CC2CCCN2C(=O)[C@@H]2CC[C@@H]3CCN(C(C)=O)C[C@H](NC(=O)c4cc5cc(C(F)(F)P(=O)(O)O)ccc5[nH]4)C(=O)N32)cc1 (stereo partly drawn) [Compound 131, ((2-(((5S,8S,10aR)-3-acetyl-8-(2-(4-methoxybenzyl)pyrrolidine-1-carbonyl)-6-oxodecahydropyrrolo[1,2-a][1,5]diazocin-5-yl)carbamoyl)-1H-indol-5-yl)difluoromethyl)phosphonic acid]
[1]
  IC50: 300 to 3000 nM
[2]
  IC50: 1000 to 10000 nM

## CC(=O)N1CC[C@H]2CC[C@@H](C(=O)N3CCCC3Cc3cccc(Cl)c3)N2C(=O)[C@@H](NC(=O)c2cc3cc(C(F)(F)P(=O)(O)O)ccc3[nH]2)C1 (stereo partly drawn) [Compound 132, ((2-(((5S,8S,10aR)-3-acetyl-8-(2-(3-chlorobenzyl)pyrrolidine-1-carbonyl)-6-oxodecahydropyrrolo[1,2-a][1,5]diazocin-5-yl)carbamoyl)-1H-indol-5-yl)difluoromethyl)phosphonic acid]
[1]
  IC50: 300 to 3000 nM
[2]
  IC50: 1000 to 10000 nM

## CC(=O)N1CC[C@H]2CC[C@@H](C(=O)N3CCCC3Cc3ccccc3F)N2C(=O)[C@@H](NC(=O)c2cc3cc(C(F)(F)P(=O)(O)O)ccc3[nH]2)C1 (stereo partly drawn) [Compound 133, ((2-(((5S,8S,10aR)-3-acetyl-8-(2-(2-fluorobenzyl)pyrrolidine-1-carbonyl)-6-oxodecahydropyrrolo[1,2-a][1,5]diazocin-5-yl)carbamoyl)-1H-indol-5-yl)difluoromethyl)phosphonic acid]
[1]
  IC50: 300 to 3000 nM
[2]
  IC50: 1000 to 10000 nM

## CC(=O)N1CC[C@H]2CC[C@@H](C(=O)N(C)C3CCCCC3)N2C(=O)[C@@H](NC(=O)c2cc3cc(C(F)(F)P(=O)(O)O)ccc3[nH]2)C1 [Compound 134]
[1]
  IC50: 300 to 3000 nM
[2]
  IC50: 1000 to 10000 nM

## CC(=O)N1CC[C@H]2CC[C@@H](C(=O)N(C)c3ccc(OC(F)(F)F)cc3)N2C(=O)[C@@H](NC(=O)c2cc3cc(C(F)(F)P(=O)(O)O)ccc3[nH]2)C1 [Compound 135, ((2-(((5S,8S,10aR)-3-acetyl-8-(methyl(4-(trifluoromethoxy)phenyl)carbamoyl)-6-oxodecahydropyrrolo[1,2-a][1,5]diazocin-5-yl)carbamoyl)-1H-indol-5-yl)difluoromethyl)phosphonic acid]
[1]
  IC50: 300 to 3000 nM
[2]
  IC50: 1000 to 10000 nM

## CC(=O)N1CC[C@H]2CC[C@@H](C(=O)N(C)c3ccc(C(C)(C)C)cc3)N2C(=O)[C@@H](NC(=O)c2cc3cc(C(F)(F)P(=O)(O)O)ccc3[nH]2)C1 [Compound 136, ((2-(((5S,8S,10aR)-3-acetyl-8-((4-(tert-butyl)phenyl)(methyl)carbamoyl)-6-oxodecahydropyrrolo[1,2-a][1,5]diazocin-5-yl)carbamoyl)-1H-indol-5-yl)difluoromethyl)phosphonic acid]
[1]
  IC50: ≤ 300 nM
[2]
  IC50: 1000 to 10000 nM

## COCCOc1ccc(N(C)C(=O)[C@@H]2CC[C@@H]3CCN(C(C)=O)C[C@H](NC(=O)c4cc5cc(C(F)(F)P(=O)(O)O)ccc5[nH]4)C(=O)N32)cc1 [Compound 137, ((2-(((5S,8S,10aR)-3-acetyl-8-((4-(2-methoxyethoxy)phenyl)(methyl)carbamoyl)-6-oxodecahydropyrrolo[1,2-a][1,5]diazocin-5-yl)carbamoyl)-1H-indol-5-yl)difluoromethyl)phosphonic acid]
[1]
  IC50: 300 to 3000 nM
[2]
  IC50: 1000 to 10000 nM

## CC(=O)N1CC[C@H]2CC[C@@H](C(=O)Nc3ccn(-c4ccccc4)c(=O)c3)N2C(=O)[C@@H](NC(=O)c2cc3cc(C(F)(F)P(=O)(O)O)ccc3[nH]2)C1 [Compound 140, ((2-(((5S,8S,10aR)-3-acetyl-6-oxo-8-((2-oxo-1-phenyl-1,2-dihydropyridin-4-yl)carbamoyl)decahydropyrrolo[1,2-a][1,5]diazocin-5-yl)carbamoyl)-1H-indol-5-yl)difluoromethyl)phosphonic acid]
[1]
  IC50: 300 to 3000 nM
[2]
  IC50: 100 to 1000 nM

## CC(=O)N1CC[C@H]2CC[C@@H](C(=O)N(C)c3ccc(C(C)(C)c4ccccc4)cc3)N2C(=O)[C@@H](NC(=O)c2cc3cc(C(F)(F)P(=O)(O)O)ccc3s2)C1 [Compound 155, ((2-(((5S,8S,10aR)-3-acetyl-8-(methyl(4-(2-phenylpropan-2-yl)phenyl)carbamoyl)-6-oxodecahydropyrrolo[1,2-a][1,5]diazocin-5-yl)carbamoyl)benzo[b]thiophen-5-yl)difluoromethyl)phosphonic acid]
[1]
  IC50: 300 to 3000 nM
[2]
  IC50: 1000 to 10000 nM

## CC(=O)N1CC[C@H]2CC[C@@H](C(=O)N(C)c3ccc(C(C)(C)CO)cc3)N2C(=O)[C@@H](NC(=O)c2cc3cc(C(F)(F)P(=O)(O)O)ccc3s2)C1 [Compound 156, ((2-(((5S,8S,10aR)-3-acetyl-8-((4-(1-hydroxy-2-methylpropan-2-yl)phenyl)(methyl)carbamoyl)-6-oxodecahydropyrrolo[1,2-a][1,5]diazocin-5-yl)carbamoyl)benzo[b]thiophen-5-yl)difluoromethyl)phosphonic acid]
[1]
  IC50: 300 to 3000 nM
[2]
  IC50: 1000 to 10000 nM

## CC(=O)N1CC[C@H]2CC[C@@H](C(=O)Nc3ccc4cn(C)nc4c3)N2C(=O)[C@@H](NC(=O)c2cc3cc(C(F)(F)P(=O)(O)O)ccc3s2)C1 [Compound 157, ((2-(((5S,8S,10aR)-3-acetyl-8-((2-methyl-2H-indazol-6-yl)carbamoyl)-6-oxodecahydropyrrolo[1,2-a][1,5]diazocin-5-yl)carbamoyl)benzo[b]thiophen-5-yl)difluoromethyl)phosphonic acid]
[1]
  IC50: 300 to 3000 nM
[2]
  IC50: 1000 to 10000 nM

## CC(=O)N1CC[C@H]2CC[C@@H](C(=O)Nc3ccc4cnccc4c3)N2C(=O)[C@@H](NC(=O)c2cc3cc(C(F)(F)P(=O)(O)O)ccc3s2)C1 [Compound 158, ((2-(((5S,8S,10aR)-3-acetyl-8-(isoquinolin-6-ylcarbamoyl)-6-oxodecahydropyrrolo[1,2-a][1,5]diazocin-5-yl)carbamoyl)benzo[b]thiophen-5-yl)difluoromethyl)phosphonic acid]
[1]
  IC50: 300 to 3000 nM
[2]
  IC50: 100 to 1000 nM
